Laboratory results reported in patent US4599327A, “Dibenzo[bd]pyran derivatives, process for the preparation thereof and pharmaceutical compositions containing same” (priority 1982, dated 1986).
Structures can show the parent of a compound that is named as a salt. Where two headings read alike, the source gives them in different places.

Key:
[1] = cited from earlier work
[2] = literature, cited from earlier work
[3] = literature, Wilson et al.; cited from earlier work
[4] = p.o.; U.S. Pat. No. 3,507,885 compound; cited from earlier work
[5] = hot-plate test using rats (analgesic activity); format: in vivo; conditions: for analgesic activity: suspended with 1% methyl cellulose
[6] = narcosis potentiating activity (35 mg/kg of phenobarbital in rats); format: in vivo; conditions: i.v.; narcosis time of 35 mg/kg of phenobarbital in rats lengthened by ten times (route printed for CKN-30 complex and morphine)
Method: The narcosis time of 35 mg/kg of phenobarbital in rats is lengthened by ten times by using 0.1-0.25 mg/kg i.v. CKN-30 complex or 0.05 mg/kg of CKN-49 complex. In order to achieve similar activity more than 1 mg/kg of i.v. morphine was needed.

[7] = Wilson et al., J. Med. Chem. 19, 1165 (1976)

In the case of CCCCCc1cc(O)c2c(c1)OC(C)(C)C1CCC(O)CC21 (stereo not shown), the “ED50 (tail-flick)” value ([1]; literature, B. R. Martin et al. (1977), levorotatory form) is listed as 1.71 mg/kg and the “ED50 (hot plate)” value [2, 7] is listed as 1.6 mg/kg.
For CCCCCc1cc(O)c2c(c1)OC(C)(C)[C@@H]1CC[C@@H](O)C[C@@H]21 (relative stereo) [9-nor-9β-hydroxy-hexahydrocannabinol], the analgesic strength [3] is given as “as strong as morphine”, the “ED50 (hot plate)” value [2, 7] is given as 2.9 mg/kg and the “ED50 (hot plate)” value ([2]; aqueous suspension containing Emulphor emulsifying agent and ethanol) is given as 2.9 mg/kg.
For CCCCCCC(C)(C)c1cc(O)c2c(c1)OC(C)(C)[C@@H]1CC[C@@H](O)C[C@@H]21 (relative stereo) [(±)-1,9β-dihydroxy-6,6-dimethyl-3-(1,1-dimethyl-1-heptyl)-6aβ,7,8,9,10,10aα-hexahydro-6H-dibenzo(bd)-pyrane], the “ED50 (tail-flick)” value ([1]; p.o., U.S. Pat. No. 3,507,885 compound) is given as 0.1 to 5 mg/kg and the “ED50 (mouse writhing)” value [4] is given as 1.25 mg/kg.
For COCCCC(C)c1cc(O)c2c(c1)OC(C)(C)[C@@H]1CC[C@@H](O)C[C@@H]21 (relative stereo) [CKN-30, (±)-1,9β-dihydroxy-6aβ,7,8,9,10,10aα-hexahydro-6,6-dimethyl-3-[(2RS)-5-methoxy-2-pentyl]-6H-dibenzo[bd]pyrane], the analgesic activity [5] was “moderate analgesic activity”.
For CCOCCCC(C)c1cc(O)c2c(c1)OC(C)(C)[C@@H]1CC[C@@H](O)C[C@@H]21 (relative stereo) [CKN-49, (±)-1,9β-dihydroxy-6aβ,7,8,9,10,10aα-hexahydro-6,6-dimethyl-3-[(2RS)-5-ethoxy-2-pentyl]-6H-dibenzo[bd]pyrane], the analgesic activity [5] was “moderate analgesic activity”.
In the case of CN1CC[C@]23c4c5ccc(O)c4O[C@H]2[C@@H](O)C=C[C@H]3[C@H]1C5 [morphine. HCl], the “ED50 (hot plate)” value [2, 7] is given as 1.2 mg/kg.
For CN1CC[C@]23c4c5ccc(O)c4O[C@H]2[C@@H](O)C=C[C@H]3[C@H]1C5 [morphine], the ED50 ([5]; i.v.) was 3.6 mg/kg, the ED50 ([5]; s.c.) was 4.6 mg/kg and the “dose lengthening the narcosis time by ten times” value [6] was “more than 1 mg/kg”.
